Measurements: patent US20200323823A1, “METHODS FOR THE TREATMENT OF DEPRESSION” (Praxis Precision Medicines, Inc., priority 2018, published 2020)
Like-named read-outs stand apart in the source and are kept apart here.

Columns and labels:
[1] = in vivo, po
Description: (§2) The Day 1 dose was administered after a minimum of 10 hour fasting. No additional fluid intake was allowed until 1 hour after drug administration. A standard meal was given at least 4 hours post-dose. The Day 5 dose was administered following a high-fat, high calorie meal. Participants remained at the clinical site for a total of 8 days to complete PK sampling after the second dose.
(§3) Pharmacokinetic variables (including but not limited to Cmax, Tmax and AUC(0-last)), were calculated using non-compartmental analysis.
(§4) Urine (Cohort 4): No urine analysis was conducted in Cohort 4.

[2] = human, in vivo
Description: (§5) Healthy subjects aged 18 to 55 years were treated with an oral suspension of Compound 1 to study the safety, tolerability, pharmacokinetics and pharmacodynamics of Compound 1 in healthy subjects.
(§6) The study was a randomized, double-blind, placebo-controlled multiple escalating dose study comprised of 3 cohorts that each received an oral suspension. Each cohort consisted of two groups: one group treated with Compound 1 and another treated with placebo. In each cohort, the ratio of Compound 1-treated subjects to placebo-treated subjects was 3:1.
(§7) The Compound 1-treated subjects of Cohort 1 were treated with 15.0 mg of Compound 1 once per day (QD). The Compound 1-treated subjects of Cohort 2 were treated with 30.0 mg of Compound 1 QD. The Compound 1-treated subjects of Cohort 3 were treated with 60.0 mg of Compound 1 QD.
(§8) Patients in each cohort were treated with Compound 1 for 14 consecutive days, unless dosing was halted by the Safety Review Committee (SRC). The dosing of subjects in each of the cohorts was staggered with the decision to dose escalate based on SRC review of a minimum of 14 days of observation of safety and tolerability data and review of the available plasma PK data from the preceding cohort(s). Thus, dose escalation was predicated on tolerability of the prior cohorts.
(§9) Compound 1 was administered under fasted conditions (no food or drink, except water, for at least 10 hours prior to dosing). Immediately after administration of Compound 1, the subject was be administered 240 mL water. No additional fluid intake was allowed until 1 hour after Compound 1 administration.
(§10) Cohort 1 subjects received a single 15.0 mg dose of a Compound 1 suspension on the morning of Days 1-14. Cohort 2 subjects received a single 30.0 mg dose of a Compound 1 suspension on the morning of Days 1-14. Cohort 3 subjects received a single 60.0 mg dose of a Compound 1 suspension on the morning of Days 1-14. For all cohorts, the last treatment was administered on the morning of Day 14.
(§11) Data were obtained from the blood plasma samples collected from each cohort according to the schedule provided.
(§12) Plasma samples were analyzed to determine Compound 1 concentrations using a validated assay method. Pharmacokinetic variables (including but not limited to Cmax, Tmax and AUC(0-last)), were calculated using non-compartmental analysis. PK parameters for Compound 1 were derived from the plasma concentration data using non-compartmental analysis with Phoenix™ WinNonlin® v 8.0 (Pharsight Corporation, USA).
(§13) For each cohort, blood samples were collected on Days 1, 2, 3, 4, 5, 6 and 14 at the following time points: Day 1 at pre-dose (0 hour), 0.25, 0.5, 0.75, 1, 1.5, 2, 2.5, 3, 4, 6, 8, 12, 16 h post-dose; Day 2 at pre-dose (24 h), Day 3 at pre-dose (48 h), Day 4 at pre-dose (72 h), Day 5 at pre-dose (96 h), Day 6 at pre-dose (120 h); Day 14 at pre-dose 0.25, 0.5, 0.75, 1, 1.5, 2, 2.5, 3, 4, 6, 8, 12, 16, 24, 36, 48, and 72 hours. Trough level blood samples were collected on Days 2, 3, 4, 5, 6 and 14, prior to the morning dose administrations.
(§14) Descriptive statistics were calculated for plasma and urine PK parameter and concentration data, and summarized by study day and time point. Arithmetic means, coefficient of variation (CV), standard deviation, median, minimum, and maximum values, and number of observations were calculated for all PK parameters and trough concentration data. Except for Tmax, the geometric mean, geometric standard deviation, and geometric CV were provided for all PK parameter and concentration data.

clinical = conditions: human, in vivo; for AUC(0-inf): AUCinf
Description: as §5, §6, §7, §8, §9, §10, §11, §12, §13, §14

[3] = Safety/tolerability in MDD patients, Part A; assay type: in vivo, human; conditions: 80 mg Cohort, compared to the 45 mg Cohort
Description: (§1) In Part A, participants were administered daily doses of Compound 1 (45 mg Cohort and 80 mg Cohort) at 4 PM on Day 1 and qHS on all other study days for 7 days inpatient followed by 7 days outpatient (with subsequent Cohorts receiving up to 120 mg qHS). Participants checked into the clinic on Day 1. During this period the following assessments were performed: adverse event assessments, vital signs, physical examinations, blood and urine samples for safety assessments, ECGs, C-SSRS assessments, blood samples for PK, and efficacy assessments (HAM-D, MADRS, HAM-A, CGI [CGI-S and CGI-I], PSQI, and SDQ). Baseline assessments occurred on Day 1 prior to administration of study drug. On Day 8, prior to discharge, participants were supplied with sufficient Compound 1 to complete 7 days of dosing.
Adverse events (AEs) will be monitored throughout the duration of the study.

[4] = Randomized, double-blind, placebo-controlled multiple escalating dose study, plasma PK of Compound 1 oral suspension (Cohorts 1-3); conditions: for Vd/F: Vz/F
Description: as §5, §6, §7, §8, §9, §10, §11, §12, §13, §14

[5] = Food Effect Cohort (Cohort 4), single 30 mg dose fasted vs high-fat, high calorie meal, plasma PK; conditions: human, po, t 1/2, Cohort 4, single 30 mg oral, n = 10, Mean (SD)
Description: as §2, §3, §4

[6] = tested on: patients with severe major depressive disorder (MDD); assay: Open-label study in severe MDD, Part A, HAM-D efficacy; assay type: in vivo, human
Description: The study is an open-label, study comprised of two dosing periods, Part A and Part B, during which patients were treated with an oral suspension of Compound 1. Part A was an open-label assessment of two dose levels of Compound 1 (45 mg qHS Cohort 1 and 80 mg qHS Cohort, i.e., once daily administration at bedtime) administered for 7 days inpatient followed by 7 days outpatient. PRAX-114 was administered at 4 PM on Day 1 in order to collect post-dosing PK samples that could not be collected with qHS dosing.
as §1
Patients were administered daily doses of Compound 1 for 7 days inpatient followed by 7 days outpatient.
In the 45 mg Cohort, patients were administered once daily dose of 45 mg of Compound 1 at bedtime for 7 days inpatient followed by once daily dose of 45 mg of Compound 1 at bedtime for 7 days outpatient.
In the 80 mg Cohort, patients were administered once daily dose of 80 mg of Compound 1 at bedtime for 7 days inpatient followed by once daily dose of 80 mg of Compound 1 at bedtime for 7 days outpatient.
In Part A, HAM-D, MADRS, HAM-A, CGI-S, and CGI-I values were collected in the morning of Days 1, 2, 3, 4, 5, 6, 7, 8, 15, 21 and 28. PSQI and SDQ values will be collected on Days 1, 8, 15, 21 and 28. Part B: In Part B, HAM-D, MADRS, HAM-A, CGI-S, CGI-I, PSQI and SDQ values will be collected on the days described for Part A.
HAM-D Response was defined as a reduction from baseline of ≥50% in total HAM-D score. HAM-D remission was defined as a total HAM-D score of ≤7.
For both parts of the clinical trial, the HAM-D total score and change from baseline values will be summarized by treatment group and time point. In addition, the change from baseline in HAM-D total score will also be analyzed using paired t-tests or similar methods. The null hypothesis of this test is that the mean difference in HAM-D total score between paired observations (i.e., pre- and post-treatment) is zero. Similar analysis methods will be used for all secondary and exploratory efficacy variables.

[7] = Cohort 1, 15.0 mg QD oral, Day 14, Mean
[8] = Cohort 2, 30.0 mg QD oral, Day 14, Mean

SMILES: COC[C@@]1(O)CC[C@@]2(C)[C@@H](CC[C@@H]3[C@@H]2CC[C@]2(C)[C@@H](C(=O)Cn4ccnc4)CC[C@@H]32)C1 [Compound 1, 3α-Hydroxy-3β-methoxymethyl-21-(1′-imidazolyl)-5α-pregnan-20-one]
- Tmax ([1]; human): 1.00 (0.75, 1.77) h
- Cmax higher under fasting conditions compared to fed conditions ([1]; human, 30 mg): 1.5-1.6 times
- t½, fasted versus fed conditions [1]: similar
- dose dependence of Cavg, AUCss and AUCinf [2]: proportional increase
- dose dependence of Cmax and AUC parameters at steady state ([2]; po): approximate proportional increase
- steady state clearance ([2]; po): approximately 31 L/h
- accumulation factor of the dosing interval (ratio of AUCDay 14/AUCDay 1) ([2]; po, 15 mg): approximately 1.25
- Cmax ([2]; po, 30 mg): 156.00 ng/mL
- accumulation factor of the dosing interval (ratio of AUCDay 14/AUCDay 1) ([2]; po, 30 mg): approximately 1.25
- Tmax ([2]; po, 60 mg): 1.00 h
- accumulation factor of the dosing interval (ratio of AUCDay 14/AUCDay 1) ([2]; po, 60 mg): 0.89
- Tmax (clinical): ≤ 2 h
- AUC (clinical; po, 15 mg, AUC0-tau): 362 ng·h/mL
- AUC(0-inf) (clinical; po, 15 mg): 600 ng·h/mL
- AUC (clinical; po, 15 mg, AUCss): 492 ng·h/mL
- Cmax (clinical; po, 15 mg): 56 ng/mL
- Cmax (clinical; po, 15 mg, ss): 65 ng/mL
- Tmax (clinical; po, 15 mg): 1.03 h
- Tmax (clinical; po, 15 mg, ss): 1.07 h
- AUC (clinical; po, 30 mg, AUC0-tau): 842 ng·h/mL
- AUC(0-inf) (clinical; po, 30 mg): 1230 ng·h/mL
- AUC (clinical; po, 30 mg, AUCss): 1020 ng·h/mL
- Cmax (clinical; po, 30 mg): 133 ng/mL
- Cmax (clinical; po, 30 mg, ss): 164 ng/mL
- Tmax (clinical; po, 30 mg, ss): 0.964 h
- AUC (clinical; po, 60 mg, AUC0-tau): 2340 ng·h/mL
- AUC(0-inf) (clinical; po, 60 mg): 2370 ng·h/mL
- AUC (clinical; po, 60 mg, AUCss): 2080 ng·h/mL
- Cmax (clinical; po, 60 mg): 364 ng/mL
- Cmax (clinical; po, 60 mg, ss): 355 ng/mL
- Tmax (clinical; po, 60 mg): 1.14 h
- Tmax (clinical; po, 60 mg, ss): 0.969 h
- tolerability / Adverse Event profile [3]: well tolerated with no change in Adverse Event profile
- CLss/F ([4]; Cohort 1, 15.0 mg QD oral, Day 14, Geo Mean): 30.497 L/h
- CLss/F [4, 7]: 31.415 L/h
- t1/2 [4, 7]: 14.772 h
- CLss/F ([4]; Cohort 1, 15.0 mg QD oral, Day 14, Median): 30.41 L/h
- CLss/F ([4]; Cohort 2, 30.0 mg QD oral, Day 14, Geo Mean): 30.178 L/h
- CLss/F [4, 8]: 30.949 L/h
- t1/2 [4, 8]: 12.701 h
- CLss/F ([4]; Cohort 2, 30.0 mg QD oral, Day 14, Median): 30.12 L/h
- CLss/F ([4]; Cohort 3, 60.0 mg QD oral, Day 14, Geo Mean): 30.398 L/h
- CLss/F ([4]; Cohort 3, 60.0 mg QD oral, Day 14, Mean): 32.142 L/h
- CLss/F ([4]; Cohort 3, 60.0 mg QD oral, Day 14, Median): 28.45 L/h
- Vd/F ([4]; human, plasma, po, 15 mg, Cohort 1, 15.0 mg QD oral, Day 14, Geo Mean): 643 L
- Vd/F ([4]; human, plasma, po, 15 mg, Cohort 1, 15.0 mg QD oral, Day 14, Mean): 655 L
- Vd/F ([4]; human, plasma, po, 15 mg, Cohort 1, 15.0 mg QD oral, Day 14, Median): 657 L
- half-life ([4]; human, plasma, po, 15 mg, t1/2, Cohort 1, 15.0 mg QD oral, Day 14, Geo Mean): 14.6 h
- half-life ([4]; human, plasma, po, 15 mg, t1/2, Cohort 1, 15.0 mg QD oral, Day 14, Mean): 14.8 ± 2.26 h
- half-life ([4]; human, plasma, po, 15 mg, t1/2, Cohort 1, 15.0 mg QD oral, Day 14, Median): 15.3 h
- Cmax ([4]; human, plasma, po, 30 mg, Cmax, Cohort 2, 30.0 mg QD oral, Day 1, Geometric Mean): 120 ng/mL
- Vd/F ([4]; human, plasma, po, 30 mg, Cohort 2, 30.0 mg QD oral, Day 14, Geo Mean): 551 L
- Vd/F ([4]; human, plasma, po, 30 mg, Cohort 2, 30.0 mg QD oral, Day 14, Mean): 570 L
- Vd/F ([4]; human, plasma, po, 30 mg, Cohort 2, 30.0 mg QD oral, Day 14, Median): 514 L
- half-life ([4]; human, plasma, po, 30 mg, t1/2, Cohort 2, 30.0 mg QD oral, Day 14, Geo Mean): 12.6 h
- half-life ([4]; human, plasma, po, 30 mg, t1/2, Cohort 2, 30.0 mg QD oral, Day 14, Mean): 12.7 ± 1.23 h
- half-life ([4]; human, plasma, po, 30 mg, t1/2, Cohort 2, 30.0 mg QD oral, Day 14, Median): 12.9 h
- Vd/F ([4]; human, plasma, po, 60 mg, Cohort 3, 60.0 mg QD oral, Day 14, Geo Mean): 533 L
- Vd/F ([4]; human, plasma, po, 60 mg, Cohort 3, 60.0 mg QD oral, Day 14, Mean): 574 L
- Vd/F ([4]; human, plasma, po, 60 mg, Cohort 3, 60.0 mg QD oral, Day 14, Median): 531 L
- half-life ([4]; human, plasma, po, 60 mg, t1/2, Cohort 3, 60.0 mg QD oral, Day 14, Geo Mean): 12.2 h
- half-life ([4]; human, plasma, po, 60 mg, t1/2, Cohort 3, 60.0 mg QD oral, Day 14, Mean): 12.2 ± 1.32 h
- half-life ([4]; human, plasma, po, 60 mg, t1/2, Cohort 3, 60.0 mg QD oral, Day 14, Median): 12.4 h
- half-life ([4]; human, plasma, po, mean t1/2, steady state, across Cohorts 1-3 (15.0-60.0 mg QD oral)): 12.2 to 14.8 h
- half-life ([5]; Fasted (Day 1)): 11.2 h
- half-life ([5]; Fed (Day 1 as printed)): 11.3 h
- least squares Mean Change from Baseline in HAM-D score ([6]; 45 mg Cohort, Day 7): −17.8
- least squares Mean Change from Baseline in HAM-D score ([6]; 45 mg Cohort, Day 15): −13.2
- patients who met the HAM-D Response or Remission criterion ([6]; 45 mg Cohort, once daily at bedtime, Day 7): 11 of the 13
- patients who met the HAM-D Response or Remission criteria ([6]; 45 mg Cohort, once daily at bedtime, Day 15): 8 of the 13
- least squares Mean Change from Baseline in HAM-D score ([6]; 80 mg Cohort, Day 7): −20.0
- least squares Mean Change from Baseline in HAM-D score ([6]; 80 mg Cohort, Day 15): −16.0
- patients who met the HAM-D Response or Remission criteria ([6]; 80 mg Cohort, once daily at bedtime, Day 15): 6 of the 7
- Efficacy by background antidepressant ([6]; as monotherapy and in combination with another antidepressant): Efficacy was observed
- symptoms of moderate to severe MDD ([6]; daily dose of 45 mg or 80 mg): exhibited reduced symptoms of moderate to severe MDD
